Key:
barnyardgrass = experiment: Test B flooded paddy test; type: in vivo, Echinochloa crus-galli; details: 500 g ai/ha, Flood; scale of 0 to 100 where 0 is no effect and 100 is complete control
Method in brief: (§1)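 In-water application to pots flooded 3 cm deep, plants at 2-leaf stage. Held in greenhouse 13–15 days at constant flood depth. Scored 0–100 by eye against controls.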

crabgrass, large = experiment: Test C pre-/postemergence herbicide test; type: in vivo, Digitaria sanguinalis
Method in brief: (§2)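 Two application timings ran in parallel with identically formulated test chemicals (non-phytotoxic solvent, surfactant included): spray on seeded loam–sand soil, and spray on emerged plants 2 to 18 cm high. Evaluation at 13 to 15 days compared each species with controls, rated from 0 up to 100.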

sedge, umbrella = experiment: Test B flooded paddy test; type: in vivo, Cyperus difformis; details: 500 g ai/ha, Flood; scale of 0 to 100 where 0 is no effect and 100 is complete control
Method in brief: as §1

wheat (winter wheat) = experiment: Test C pre-/postemergence herbicide test; type: in vivo, Triticum aestivum
Method in brief: as §2

rice = experiment: Test B flooded paddy test; type: in vivo, Oryza sativa; details: 500 g ai/ha, Flood; scale of 0 to 100 where 0 is no effect and 100 is complete control
Method in brief: as §1

blackgrass = experiment: Test C pre-/postemergence herbicide test; type: in vivo, Alopecurus myosuroides; details: for Blackgrass plant response rating: scale 0 to 100, 0 is no effect and 100 is complete control
Method in brief: as §2

ragweed = experiment: Test C pre-/postemergence herbicide test; type: in vivo, Ambrosia elatior
Method in brief: as §2

wheat = experiment: Test A pre-/postemergence herbicide test; type: in vivo, Triticum aestivum; details: Postemergence; for Plant response rating, Wheat: 125 g ai/ha, 0 to 100 scale, 0 is no effect, 100 is complete control; for Wheat plant response rating (0 to 100 scale, 0 is no effect, 100 is complete control): 500 g ai/ha
Method in brief: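 Directed soil spray to seeded pots (preemergence) or spray onto one- to two-leaf seedlings 2–10 cm tall (postemergence); loam/sand substrate throughout. Evaluated visually after about 10 days against untreated plants, 0 = no effect, 100 = complete control.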

oilseed rape = experiment: Test C pre-/postemergence herbicide test; type: in vivo, Brassica napus
Method in brief: as §2

johnsongrass = experiment: Test C pre-/postemergence herbicide test; type: in vivo, Sorghum halepense
Method in brief: as §2

pigweed = experiment: Test C pre-/postemergence herbicide test; type: in vivo, Amaranthus retroflexus
Method in brief: as §2

velvetleaf = experiment: Test C pre-/postemergence herbicide test; type: in vivo, Abutilon theophrasti
Method in brief: as §2

[1] = Postemergence, 31 g ai/ha, scale 0 to 100 (0 no effect, 100 complete control)
[2] = Postemergence, 62 g ai/ha, scale 0 (no effect) to 100 (complete control)
[3] = Postemergence, 125 g ai/ha, scale 0 to 100 (0 no effect, 100 complete control)
[4] = Postemergence, 250 g ai/ha, scale 0 to 100 (0 no effect, 100 complete control)
[5] = Preemergence, 31 g ai/ha, scale 0 to 100, 0 is no effect and 100 is complete control
[6] = Preemergence, 62 g ai/ha, scale 0 to 100 (0 no effect, 100 complete control)
[7] = Preemergence, 125 g ai/ha, scale 0 to 100 (0 no effect, 100 complete control)
[8] = Preemergence, 62 g ai/ha, scale 0 to 100

O=C1NCC(c2ccc(C(F)(F)F)cc2)C1C(=O)Nc1ccc(F)c(F)c1F (stereo not shown) [Compound 232]
Plant response rating, Barnyardgrass (barnyardgrass): 85
Plant response rating, Crabgrass, Large (crabgrass, large; [1]): 25
Plant response rating, Crabgrass, Large (crabgrass, large; [2]): 35
Plant response rating, Crabgrass, Large (crabgrass, large; [3]): 60
Plant response rating, Crabgrass, Large (crabgrass, large; [4]): 75
Crabgrass, Large plant response rating (crabgrass, large; [5]): 85
Crabgrass, Large plant response rating (crabgrass, large; [6]): 90
Plant response rating, Crabgrass, Large (crabgrass, large; [7]): 90
Plant response rating (scale of 0 to 100), Crabgrass, Large (crabgrass, large; Preemergence, 250 g ai/ha): 90
Plant response rating, Sedge, Umbrella (sedge, umbrella): 0
Plant response rating, Wheat (wheat (winter wheat); [1]): 0
Plant response rating, Wheat (wheat (winter wheat); [2]): 0
Plant response rating, Wheat (wheat (winter wheat); [3]): 5
Plant response rating, Wheat (wheat (winter wheat); [4]): 5
Wheat plant response rating (wheat (winter wheat); [5]): 0
Wheat plant response rating (wheat (winter wheat); [6]): 0
Plant response rating, Wheat (wheat (winter wheat); [7]): 0
Plant response rating (scale of 0 to 100), Wheat (wheat (winter wheat); Preemergence, 250 g ai/ha): 5
Plant response rating, Rice (rice): 20
Plant response rating, Blackgrass (blackgrass; [1]): 0
Plant response rating, Blackgrass (blackgrass; [2]): 0
Plant response rating, Blackgrass (blackgrass; [3]): 0
Plant response rating, Blackgrass (blackgrass; [4]): 0
Blackgrass plant response rating (blackgrass; Preemergence, 31 g ai/ha): 60
Plant response rating, Blackgrass (blackgrass; [8]): 70
Plant response rating, Blackgrass (blackgrass; [7]): 70
Plant response rating (scale of 0 to 100), Blackgrass (blackgrass; Preemergence, 250 g ai/ha): 85
Plant response rating, Ragweed (ragweed; [1]): 75
Plant response rating, Ragweed (ragweed; [2]): 80
Plant response rating, Ragweed (ragweed; [3]): 85
Plant response rating, Ragweed (ragweed; [4]): 75
Ragweed plant response rating (ragweed; [5]): 65
Ragweed plant response rating (ragweed; [6]): 85
Plant response rating, Ragweed (ragweed; [7]): 85
Plant response rating (scale of 0 to 100), Ragweed (ragweed; Preemergence, 250 g ai/ha): 90
Plant response rating, Wheat (wheat): 30
Wheat plant response rating (0 to 100 scale, 0 is no effect, 100 is complete control) (wheat): 50
Plant response rating, Oilseed Rape (oilseed rape; [1]): 0
Plant response rating, Oilseed Rape (oilseed rape; [2]): 50
Plant response rating, Oilseed Rape (oilseed rape; [3]): 65
Plant response rating, Oilseed Rape (oilseed rape; [4]): 40
Oilseed Rape plant response rating (oilseed rape; [5]): 30
Oilseed Rape plant response rating (oilseed rape; [6]): 30
Plant response rating, Oilseed Rape (oilseed rape; [7]): 50
Plant response rating (scale of 0 to 100), Oilseed Rape (oilseed rape; Preemergence, 250 g ai/ha): 85
Plant response rating, Johnsongrass (johnsongrass; [1]): 0
Plant response rating, Johnsongrass (johnsongrass; [2]): 20
Plant response rating, Johnsongrass (johnsongrass; [3]): 20
Plant response rating, Johnsongrass (johnsongrass; [4]): 25
Johnsongrass plant response rating (johnsongrass; [5]): 0
Johnsongrass plant response rating (johnsongrass; [6]): 20
Plant response rating, Johnsongrass (johnsongrass; [7]): 60
Plant response rating (scale of 0 to 100), Johnsongrass (johnsongrass; Preemergence, 250 g ai/ha): 70
Plant response rating, Pigweed (pigweed; [1]): 80
Plant response rating, Pigweed (pigweed; [2]): 85
Plant response rating, Pigweed (pigweed; [3]): 85
Plant response rating, Pigweed (pigweed; [4]): 85
Pigweed plant response rating (pigweed; [5]): 85
Pigweed plant response rating (pigweed; [6]): 85
Plant response rating, Pigweed (pigweed; [7]): 85
Plant response rating (scale of 0 to 100), Pigweed (pigweed; Preemergence, 250 g ai/ha): 95
Plant response rating, Velvetleaf (velvetleaf; [1]): 5
Plant response rating, Velvetleaf (velvetleaf; [2]): 15
Plant response rating, Velvetleaf (velvetleaf; [3]): 30
Plant response rating, Velvetleaf (velvetleaf; [4]): 60
Velvetleaf plant response rating (velvetleaf; [5]): 25
Velvetleaf plant response rating (velvetleaf; [6]): 40
Plant response rating, Velvetleaf (velvetleaf; [7]): 65
Plant response rating (scale of 0 to 100), Velvetleaf (velvetleaf; Preemergence, 250 g ai/ha): 75

O=C1NCC(c2ccc(C(F)(F)F)cc2)C1C(=O)Nc1ccccc1Cl (stereo not shown) [Compound 233]
Plant response rating, Barnyardgrass (barnyardgrass): 60
Crabgrass, Large plant response rating (crabgrass, large; [5]): 90
Crabgrass, Large plant response rating (crabgrass, large; [6]): 90
Plant response rating, Crabgrass, Large (crabgrass, large; [7]): 90
Plant response rating (scale of 0 to 100), Crabgrass, Large (crabgrass, large; Preemergence, 250 g ai/ha): 90
Plant response rating, Sedge, Umbrella (sedge, umbrella): 0
Wheat plant response rating (wheat (winter wheat); [5]): 0
Wheat plant response rating (wheat (winter wheat); [6]): 0
Plant response rating, Wheat (wheat (winter wheat); [7]): 0
Plant response rating (scale of 0 to 100), Wheat (wheat (winter wheat); Preemergence, 250 g ai/ha): 0
Plant response rating, Rice (rice): 0
Blackgrass plant response rating (blackgrass; Preemergence, 31 g ai/ha): 30
Plant response rating, Blackgrass (blackgrass; [8]): 45
Plant response rating, Blackgrass (blackgrass; [7]): 60
Plant response rating (scale of 0 to 100), Blackgrass (blackgrass; Preemergence, 250 g ai/ha): 90
Ragweed plant response rating (ragweed; [5]): 10
Ragweed plant response rating (ragweed; [6]): 40
Plant response rating, Ragweed (ragweed; [7]): 40
Plant response rating (scale of 0 to 100), Ragweed (ragweed; Preemergence, 250 g ai/ha): 85
Plant response rating, Wheat (wheat): 0
Wheat plant response rating (0 to 100 scale, 0 is no effect, 100 is complete control) (wheat): 20
Oilseed Rape plant response rating (oilseed rape; [5]): 0
Oilseed Rape plant response rating (oilseed rape; [6]): 40
Plant response rating, Oilseed Rape (oilseed rape; [7]): 80
Plant response rating (scale of 0 to 100), Oilseed Rape (oilseed rape; Preemergence, 250 g ai/ha): 85
Johnsongrass plant response rating (johnsongrass; [5]): 0
Johnsongrass plant response rating (johnsongrass; [6]): 0
Plant response rating, Johnsongrass (johnsongrass; [7]): 20
Plant response rating (scale of 0 to 100), Johnsongrass (johnsongrass; Preemergence, 250 g ai/ha): 45
Pigweed plant response rating (pigweed; [5]): 50
Pigweed plant response rating (pigweed; [6]): 50
Plant response rating, Pigweed (pigweed; [7]): 60
Plant response rating (scale of 0 to 100), Pigweed (pigweed; Preemergence, 250 g ai/ha): 70
Velvetleaf plant response rating (velvetleaf; [5]): 15
Velvetleaf plant response rating (velvetleaf; [6]): 25
Plant response rating, Velvetleaf (velvetleaf; [7]): 45
Plant response rating (scale of 0 to 100), Velvetleaf (velvetleaf; Preemergence, 250 g ai/ha): 45

From patent US10294202B2, “Pyrrolidinones as herbicides” (FMC Corporation, priority 2013, dated 2019)
